The subject of data set [1] is lung tumor-bearing mice (luciferase expressing LLC cells). The data set can be described thus: Open field test, elevated plus maze and tumor growth in mice with orthotopic LLC lung tumors. The class given is in vivo, C57BL/6 mice. The protocol:
FIGS. 5A-5C depict the effects of CBD on behavior in lung tumor bearing mice. […] D-Luciferin (150 mg/kg) was delivered by IP injection 10 minutes prior to imaging. Vehicle or CBD (25 mg/kg) was delivered by oral gavage every alternate day and Open Field (FIG. 5B) and EPM (FIG. 5C) tests were performed. Significant differences between means were determined by ANOVA with Holm Sidack post hoc test.
Effects of CBD on the behavior of lung tumor-bearing mice: To make a preliminary assessment of the effects of CBD on the behavior of lung tumor-bearing mice, a study was conducted which used the open field test and EPM to determine if behavioral deficiencies observed in FIGS. 4A-4C could be rescued. Lung tumors were initiated in C57BL/6 mice via intratracheal instillation of 5×10^5 luciferase expressing LLC cells (Perkin Elmer) and tumor growth was monitored using the Perkin Elmer In Vivo Imaging System (IVIS). Treatment groups were assigned on day 9 (FIG. 5A) to ensure each group (n=4) contained tumors of approximately the same size based on luminescence readings. CBD (25 mg/kg) or vehicle (2:1:18 parts ethanol:Tween-80:PBS) treatments by oral gavage were started on day 10 and repeated every alternate day, two hours prior to the beginning of behavioral testing. […] This is consistent with previous studies of CBD treatment in naïve mice. […] (FIG. 5B).
This may indicate less interest in the corner zone and, therefore, less anxiety. […] The effects of CBD treatment in lung cancer can be investigated using additional tests to measure pain (cold plate, Von Frey, conflict avoidance) and endurance (treadmill) to discover how CBD dose and combination with cancer therapies can improve these outcomes.

The subject of data set [2] is H1975 lung cancer cell line. The data set can be described thus: CellTiter Glo viability assay, drugs alone or combined with CBD. The data set is classed as cell-based. The protocol: Viability after treatment with each cancer drug was compared with and without CBD (*=p<0.05 Student's t test).
Effects of CBD combination with Standard of Care drugs in lung cancer cells: A study was conducted which screened cannabinoids, including CBD, for their ability to synergize with FDA-approved anti-cancer drugs to reduce the viability of cancer cells in vitro. […] IC50 was calculated using GraphPad Prism (dose-response inhibition), and Combination Index (CI) was calculated using CompuSyn software. […] Because the major driver mutation in this cell line is known (KRAS), the study evaluated potential drug synergy between CBD and the G12D specific KRAS inhibitor MTRX1133.
For orientation: Cellular ATP, detected with luciferase, serves as a proxy for viable cell number.

The subject of data set [3] is LLC lung cancer cell line. The data set can be described thus: cells. The data set is classed as cell-based, mouse.
For data set [4], the system named is LLC flank tumor-bearing mice. The experiment in a line: Open field test and elevated plus maze in mice with subcutaneous LLC flank tumors after chemotherapy. The data set is classed as in vivo, C57BL/6 mice. Here is the method: FIGS. 4A-4C depict that the behavior of mice is altered by tumor growth and by chemotherapy indicating increased pain and anxiety. C57BL/6 mice were inoculated with 5×105 LLC1 on right flank on Day 0. Cisplatin or Osimertinib were administered in doses of 10 mg/kg by intraperitoneal injection on the days indicated. DMSO+sterile saline was used as a vehicle control. Behavior was assayed using the open field test and EPM according to the timeline depicted in FIG. 4A. The open field (FIG. 4B) and EPM (FIG. 4C) tests were recorded using AnyMaze software to track animal speed, movement, and location. Significant differences between means were determined by ANOVA with Holm Sidack post hoc test p<0.05.
Alterations in behavior in tumor-bearing mice following chemotherapy treatment: To make a preliminary assessment of cancer and chemotherapy-derived symptoms (anxiety, reduced mobility, and pain) in mice, a study was conducted which used the syngeneic Lewis Lung Carcinoma (LLC) model of subcutaneous flank tumors. C57BL/6 mice were injected with 5×10^5 LLC cells on the right flank. Tumor-bearing mice were treated with Cisplatin, Osimertinib, or vehicle, as outlined in FIGS. 5A-5C. The study performed the open field test (a sensory motor test used to measure general activity level) and the elevated plus maze (EPM) (test for anxiety behavior) on tumor-bearing mice throughout the period of tumor growth and treatment (FIG. 4A). In these tests, reduced physical activity was used an indicator of increased pain, and decreases in both distances traveled and time spent mobile over the tumor growth period were observed. […] Overall, the mice spent very little time in the open arms regardless of time point or treatment group making the measure unreliable. […] One limitation of this model is the contribution of tumor location on the hind flank to decreased mobility. To overcome this limitation, future studies can use genetically engineered models of tumor growth in the lungs.

Where [5] appears, read: 25 mg/kg oral gavage every alternate day.
Where [6] appears, read: LLC flank tumor mice, 10 mg/kg intraperitoneal.

SMILES strings stand for the structures. Like-named read-outs stand apart in the source and are kept apart here.

As to `C=C(C)[C@@H]1CCC(C)=C[C@H]1c1c(O)cc(CCCCC)cc1O` [CBD, Cannabidiol], the “Number of entries into the corner zone (open field)” value in data set [1] (setting [5]) was “trending decrease”. In data set [1] (setting [5]), the “Time mobile in the EPM” value is “significant increases”. Also, the “Time spent in the center zone (open field)” value in data set [1] (setting [5]) is reported as “significant increases”. Also, the “Time the animal's head was within the open center zone (EPM)” value in data set [1] (setting [5]) is given as “significant increases”. The “Distance travelled in the open field test” value in data set [1] (25 mg/kg oral gavage every alternate day, initially) is listed as “no significant change”. Further, in data set [1] (25 mg/kg oral gavage every alternate day, later as tumor growth progressed), the “Time mobile in the open field” value was “significant increases”. Moreover, the Tumor growth result in data set [1] (CBD alone, 25 mg/kg oral gavage, IVIS luminescence) is “significant reduction in tumor growth using CBD alone was not observed”. Also, the IC50 amounted to 19.5 µM in data set [2] (Homo sapiens, NCI-H1975, 48 h, read-out: IC50 (μM), cell viability reduction); 21 µM in data set [2] (Homo sapiens, NCI-H1975, read-out: IC50 of CBD alone (FIG. 2 legend)); 19 µM in data set [3] (Mus musculus, 48 hr, combinations with 10 μM CBD, read-out: IC50 (μM), cell viability reduction); 14.5 µM in data set [3] (Mus musculus, n=3, read-out: IC50 of CBD alone (FIG. 2 legend)).
For `N.N.[Cl][Pt][Cl]` [Cisplatin], the IC50 in data set [2] (H1975, 48 hr, combinations with 10 μM CBD, read-out: IC50 (μM), cell viability reduction) was determined as 28 µM. In data set [3] (48 hr, combinations with 10 μM CBD, read-out: IC50 (μM), cell viability reduction), the IC50 worked out at 3.1 µM. Besides, in data set [4] (setting [6]), the “Anxiety compared to vehicle” value is reported as “increased anxiety”, the “Mobility compared to vehicle” value is “greater reduction in mobility” and the “Time spent in the open center zone (EPM) compared to vehicle” value was “significantly decreased”.
For the compound `C=CC(=O)Nc1cc(Nc2nccc(-c3cn(C)c4ccccc34)n2)c(OC)cc1N(C)CCN(C)C` [Osimertinib], the 50% inhibitory concentration (IC50) in data set [2] (Homo sapiens, NCI-H1975, H1975, 48 hr, combinations with 10 μM CBD, read-out: IC50 (μM), cell viability reduction) came to 3.7 µM. Also, the “Time spent in the open center zone (EPM) compared to vehicle” value in data set [4] (setting [6]) was “significantly decreased”. In addition, in data set [4] (mouse, in vivo, ip, 10 mg/kg), the “Anxiety compared to vehicle” value is “increased anxiety”.

Broadly, the IC50 is the concentration that inhibits the measured activity by half.

Values taken from patent publication US20240293432A1, “Use of Cannabidiol to Improve Rehabilitation in Lung Cancer” (priority 2023, published 2024).
